Source: ChEMBL document CHEMBL3797052 (Eur J Med Chem, 2016)

Experiments:
Format in all cases: functional
[1] = Cytotoxicity against human HCT116 cells assessed as growth inhibition at 100 uM after 2 days by MTT assay; conditions: HCT-116, 48 h, read-out: GI
[2] = Cytotoxicity against human HCT116 cells assessed as growth inhibition at 10 uM after 2 days by MTT assay; conditions: HCT-116, 48 h, read-out: GI
[3] = Cytotoxicity against human SKBR3 cells assessed as growth inhibition at 100 uM after 2 days by MTT assay; conditions: SK-BR-3, 48 h, read-out: GI
[4] = Cytotoxicity against human SKBR3 cells assessed as growth inhibition at 10 uM after 2 days by MTT assay; conditions: SK-BR-3, 48 h, read-out: GI
[5] = Antiproliferative activity against human HL-60(TB) cells assessed as cell growth at 10^-5 M after 48 hrs by sulforhodamine B assay; conditions: HL-60, 48 h, read-out: Activity
K562 = experiment: Antiproliferative activity against human K562 cells assessed as cell growth at 10^-5 M after 48 hrs by sulforhodamine B assay; conditions: K562, 48 h, read-out: Activity
[6] = Antiproliferative activity against human MOLT4 cells assessed as cell growth at 10^-5 M after 48 hrs by sulforhodamine B assay; conditions: MOLT-4, 48 h, read-out: Activity
SR = experiment: Antiproliferative activity against human SR cells assessed as cell growth at 10^-5 M after 48 hrs by sulforhodamine B assay; conditions: read-out: Activity
A549 = experiment: Antiproliferative activity against human A549/ATCC cells assessed as cell growth at 10^-5 M after 48 hrs by sulforhodamine B assay; conditions: A549, 48 h, read-out: Activity
EKVX = experiment: Antiproliferative activity against human EKVX cells assessed as cell growth at 10^-5 M after 48 hrs by sulforhodamine B assay; conditions: read-out: Activity
NCI-H226 = experiment: Antiproliferative activity against human NCI-H226 cells assessed as cell growth at 10^-5 M after 48 hrs by sulforhodamine B assay; conditions: NCI-H226, 48 h, read-out: Activity
NCI-H460 = experiment: Antiproliferative activity against human NCI-H460 cells assessed as cell growth at 10^-5 M after 48 hrs by sulforhodamine B assay; conditions: NCI-H460, 48 h, read-out: Activity
NCI-H522 = experiment: Antiproliferative activity against human NCI-H522 cells assessed as cell growth at 10^-5 M after 48 hrs by sulforhodamine B assay; conditions: NCI-H522, 48 h, read-out: Activity
[7] = Antiproliferative activity against human COLO205 cells assessed as cell growth at 10^-5 M after 48 hrs by sulforhodamine B assay; conditions: COLO 205, 48 h, read-out: Activity
[8] = Antiproliferative activity against human HCC2998 cells assessed as cell growth at 10^-5 M after 48 hrs by sulforhodamine B assay; conditions: HCC 2998, 48 h, read-out: Activity
[9] = Antiproliferative activity against human HCT116 cells assessed as cell growth at 10^-5 M after 48 hrs by sulforhodamine B assay; conditions: HCT-116, 48 h, read-out: Activity
HT-29 = experiment: Antiproliferative activity against human HT-29 cells assessed as cell growth at 10^-5 M after 48 hrs by sulforhodamine B assay; conditions: HT-29, 48 h, read-out: Activity
[10] = Antiproliferative activity against human SW620 cells assessed as cell growth at 10^-5 M after 48 hrs by sulforhodamine B assay; conditions: SW-620, 48 h, read-out: Activity
[11] = Antiproliferative activity against human SF268 cells assessed as cell growth at 10^-5 M after 48 hrs by sulforhodamine B assay; conditions: SF-268, 48 h, read-out: Activity
[12] = Antiproliferative activity against human SF295 cells assessed as cell growth at 10^-5 M after 48 hrs by sulforhodamine B assay; conditions: SF-295, 48 h, read-out: Activity
[13] = Antiproliferative activity against human SNB75 cells assessed as cell growth at 10^-5 M after 48 hrs by sulforhodamine B assay; conditions: SNB-75, 48 h, read-out: Activity
U-251 = experiment: Antiproliferative activity against human U251 cells assessed as cell growth at 10^-5 M after 48 hrs by sulforhodamine B assay; conditions: U-251, 48 h, read-out: Activity
[14] = Antiproliferative activity against human LOXIMVI cells assessed as cell growth at 10^-5 M after 48 hrs by sulforhodamine B assay; conditions: LOX IMVI, read-out: Activity
Malme-3M = experiment: Antiproliferative activity against human MALME-3M cells assessed as cell growth at 10^-5 M after 48 hrs by sulforhodamine B assay; conditions: read-out: Activity
[15] = Antiproliferative activity against human IGROV1 cells assessed as cell growth at 10^-5 M after 48 hrs by sulforhodamine B assay; conditions: IGROV-1, 48 h, read-out: Activity
[16] = Antiproliferative activity against human OVCAR3 cells assessed as cell growth at 10^-5 M after 48 hrs by sulforhodamine B assay; conditions: OVCAR-3, 48 h, read-out: Activity
[17] = Antiproliferative activity against human OVCAR5 cells assessed as cell growth at 10^-5 M after 48 hrs by sulforhodamine B assay; conditions: OVCAR-5, 48 h, read-out: Activity
[18] = Antiproliferative activity against human OVCAR8 cells assessed as cell growth at 10^-5 M after 48 hrs by sulforhodamine B assay; conditions: OVCAR-8, 48 h, read-out: Activity
[19] = Antiproliferative activity against human SKOV3 cells assessed as cell growth at 10^-5 M after 48 hrs by sulforhodamine B assay; conditions: SK-OV-3, 48 h, read-out: Activity
786-0 = experiment: Antiproliferative activity against human 786-0 cells assessed as cell growth at 10^-5 M after 48 hrs by sulforhodamine B assay; conditions: 786-0, 48 h, read-out: Activity
[20] = Antiproliferative activity against human RXF393 cells assessed as cell growth at 10^-5 M after 48 hrs by sulforhodamine B assay; conditions: RXF 393, 48 h, read-out: Activity
SN12C = experiment: Antiproliferative activity against human SN12C cells assessed as cell growth at 10^-5 M after 48 hrs by sulforhodamine B assay; conditions: read-out: Activity
[21] = Antiproliferative activity against human TK10 cells assessed as cell growth at 10^-5 M after 48 hrs by sulforhodamine B assay; conditions: TK-10, 48 h, read-out: Activity
[22] = Antiproliferative activity against human UO31 cells assessed as cell growth at 10^-5 M after 48 hrs by sulforhodamine B assay; conditions: UO-31, 48 h, read-out: Activity
MCF7 = experiment: Antiproliferative activity against human MCF7 cells assessed as cell growth at 10^-5 M after 48 hrs by sulforhodamine B assay; conditions: MCF7, 48 h, read-out: Activity
[23] = Antiproliferative activity against human BT549 cells assessed as cell growth at 10^-5 M after 48 hrs by sulforhodamine B assay; conditions: BT-549, 48 h, read-out: Activity
MDA-MB-468 = experiment: Antiproliferative activity against human MDA-MB-468 cells assessed as cell growth at 10^-5 M after 48 hrs by sulforhodamine B assay; conditions: MDA-MB-468, 48 h, read-out: Activity

Structure (SMILES): CNC(=O)c1cc(Oc2ccc3nc(NC(=O)Nc4ccc(F)cc4F)sc3c2)ccn1
- inhibition of growth at 100 µM [1]: 86.3%
- inhibition of growth at 10 µM [2]: 56.9%
- inhibition of growth at 100 µM [3]: 79.5%
- inhibition of growth at 10 µM [4]: 61.6%
- growth at 10 µM [5]: 98.3%
- growth at 10 µM (K562): 71.5%
- growth at 10 µM [6]: 82.4%
- growth at 10 µM (SR): 80.4%
- growth at 10 µM (A549): 44.8%
- growth at 10 µM (EKVX): 89.8%
- growth at 10 µM (NCI-H226): 52.8%
- growth at 10 µM (NCI-H460): 63%
- growth at 10 µM (NCI-H522): 68.7%
- growth at 10 µM [7]: 87.1%
- growth at 10 µM [8]: 88.1%
- growth at 10 µM [9]: 20.7%
- growth at 10 µM (HT-29): 58.8%
- growth at 10 µM [10]: 99.9%
- growth at 10 µM [11]: 76.1%
- growth at 10 µM [12]: 76.7%
- growth at 10 µM [13]: 19.2%
- growth at 10 µM (U-251): 37%
- growth at 10 µM [14]: 52.1%
- growth at 10 µM (Malme-3M): 46.2%
- growth at 10 µM [15]: 84.2%
- growth at 10 µM [16]: 74.7%
- growth at 10 µM [17]: 95.2%
- growth at 10 µM [18]: 45.1%
- growth at 10 µM [19]: 76.3%
- growth at 10 µM (786-0): 64%
- growth at 10 µM [20]: 42.3%
- growth at 10 µM (SN12C): 69.2%
- growth at 10 µM [21]: 93.5%
- growth at 10 µM [22]: 91.4%
- growth at 10 µM (MCF7): 66.8%
- growth at 10 µM [23]: 100%
- growth at 10 µM (MDA-MB-468): 51.2%
